Data on 19 compounds can be found in patent US20250114345A1, “COMPOUNDS AND COMPOSITIONS AS CBP/P300 DEGRADERS AND USES THEREOF” (Oncopia Therapeutics, Inc. d/b/a/ SK Life Science Labs, priority 2023, published 2025).

For this assay, the target named is T1, p300 (Homo sapiens, UniProt Q09472).
T1 construct: host or cells: A549 P300 HiBit cells
Briefly: P300 degradation, HiBit technology in A549 P300 HiBit cells (2 h). The format is cell-based. Particulars: 2 hrs post treatment; for Dmax: A549, A549 P300 HiBit cells; for DC50: A549 P300 HiBit cells. The method in brief: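 HiBiT knock-in A549 cells received compound in serial dilution at 37 °C under 5% CO2. Remaining tagged protein was quantified by lytic HiBiT luminescence after 10 min shaking at room temperature, yielding potency and maximal degradation.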
A general note: HiBiT is a short tag that completes a luciferase, so light tracks the accessible tagged protein.

Each structure is given as a SMILES string.

T1 sequence (Q09472 whole entry): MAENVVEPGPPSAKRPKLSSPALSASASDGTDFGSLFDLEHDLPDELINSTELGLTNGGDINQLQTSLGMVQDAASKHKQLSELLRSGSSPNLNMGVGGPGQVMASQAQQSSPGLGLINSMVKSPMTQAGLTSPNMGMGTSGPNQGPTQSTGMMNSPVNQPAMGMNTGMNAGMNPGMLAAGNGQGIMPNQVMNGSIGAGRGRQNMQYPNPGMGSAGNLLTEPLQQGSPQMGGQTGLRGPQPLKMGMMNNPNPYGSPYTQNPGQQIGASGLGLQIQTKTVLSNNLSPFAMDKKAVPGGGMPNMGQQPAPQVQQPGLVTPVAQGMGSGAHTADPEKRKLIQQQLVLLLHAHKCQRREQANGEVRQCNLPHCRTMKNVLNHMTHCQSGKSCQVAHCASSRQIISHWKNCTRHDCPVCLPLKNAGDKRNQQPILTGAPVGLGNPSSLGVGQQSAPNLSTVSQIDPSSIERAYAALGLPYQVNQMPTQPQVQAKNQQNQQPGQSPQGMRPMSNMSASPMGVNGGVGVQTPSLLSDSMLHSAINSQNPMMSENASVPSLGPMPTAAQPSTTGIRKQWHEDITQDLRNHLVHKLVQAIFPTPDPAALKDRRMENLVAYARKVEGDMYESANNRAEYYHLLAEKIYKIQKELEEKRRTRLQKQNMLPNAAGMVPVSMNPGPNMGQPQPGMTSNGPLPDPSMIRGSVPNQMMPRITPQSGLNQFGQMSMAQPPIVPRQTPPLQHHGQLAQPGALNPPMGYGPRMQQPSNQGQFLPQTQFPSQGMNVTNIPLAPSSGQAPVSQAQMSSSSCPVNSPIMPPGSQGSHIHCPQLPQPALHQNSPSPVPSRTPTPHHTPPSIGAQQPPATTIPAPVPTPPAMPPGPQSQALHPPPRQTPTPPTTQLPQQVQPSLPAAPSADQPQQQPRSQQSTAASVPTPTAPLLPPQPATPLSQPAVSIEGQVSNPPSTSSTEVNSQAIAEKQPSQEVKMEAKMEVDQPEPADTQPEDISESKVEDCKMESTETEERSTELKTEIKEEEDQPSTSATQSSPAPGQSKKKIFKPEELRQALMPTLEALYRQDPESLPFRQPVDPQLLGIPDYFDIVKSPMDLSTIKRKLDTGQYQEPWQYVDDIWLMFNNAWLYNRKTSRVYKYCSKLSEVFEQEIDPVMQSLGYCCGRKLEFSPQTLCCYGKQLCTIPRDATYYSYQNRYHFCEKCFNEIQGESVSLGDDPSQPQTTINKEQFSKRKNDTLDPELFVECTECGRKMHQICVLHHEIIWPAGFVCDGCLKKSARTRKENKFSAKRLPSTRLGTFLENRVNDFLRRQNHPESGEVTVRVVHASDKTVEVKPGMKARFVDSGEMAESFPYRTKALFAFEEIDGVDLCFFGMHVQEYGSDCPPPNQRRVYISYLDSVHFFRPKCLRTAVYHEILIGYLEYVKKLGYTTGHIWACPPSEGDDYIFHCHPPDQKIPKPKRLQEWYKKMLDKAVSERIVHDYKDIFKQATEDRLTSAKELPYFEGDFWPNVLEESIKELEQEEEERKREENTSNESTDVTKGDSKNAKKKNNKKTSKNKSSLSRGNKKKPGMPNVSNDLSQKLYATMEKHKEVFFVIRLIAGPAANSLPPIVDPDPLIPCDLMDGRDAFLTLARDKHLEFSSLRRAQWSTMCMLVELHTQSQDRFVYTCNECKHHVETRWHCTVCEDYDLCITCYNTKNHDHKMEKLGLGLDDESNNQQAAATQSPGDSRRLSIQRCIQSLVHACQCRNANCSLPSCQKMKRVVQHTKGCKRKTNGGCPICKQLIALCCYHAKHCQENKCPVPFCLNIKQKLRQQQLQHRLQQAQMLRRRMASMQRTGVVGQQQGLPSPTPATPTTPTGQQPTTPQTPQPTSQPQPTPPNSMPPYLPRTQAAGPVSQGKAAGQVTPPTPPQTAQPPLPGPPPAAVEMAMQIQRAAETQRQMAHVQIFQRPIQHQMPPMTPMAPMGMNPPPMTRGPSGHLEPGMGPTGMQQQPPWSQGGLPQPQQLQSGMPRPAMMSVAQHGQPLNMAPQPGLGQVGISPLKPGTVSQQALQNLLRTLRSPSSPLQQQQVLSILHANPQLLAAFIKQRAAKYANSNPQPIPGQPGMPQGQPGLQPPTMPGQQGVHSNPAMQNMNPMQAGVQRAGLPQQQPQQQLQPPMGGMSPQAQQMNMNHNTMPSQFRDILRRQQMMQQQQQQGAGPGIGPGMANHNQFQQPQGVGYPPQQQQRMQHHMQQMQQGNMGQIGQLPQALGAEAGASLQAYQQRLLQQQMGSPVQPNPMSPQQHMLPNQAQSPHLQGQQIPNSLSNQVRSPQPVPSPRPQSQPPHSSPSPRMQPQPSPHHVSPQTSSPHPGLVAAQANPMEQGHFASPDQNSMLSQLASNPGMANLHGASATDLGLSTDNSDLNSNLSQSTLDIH

As a reminder, the Dmax is the greatest extent of degradation seen. Read a high Dmax as a fuller loss of target. One may read the DC50 as the concentration giving 50% degradation. Higher therefore signals degradation only at high concentration. With `CC(C)c1cc(-c2cccc3cc(-c4ccc(C(=O)NCC#Cc5ccc6c(c5)N(C5CCC(=O)NC5=O)CC6)nc4)ncc23)cc2c1n(C)c(=O)n2C` (centres unmarked) [Example A184, N-(3-(1-(2,6-dioxo-piperidin-3-yl)indolin-6-yl)prop-2-yn-1-yl)-5-(8-(7-isopropyl-1,3-dimethyl-2-oxo-2,3-dihydro-1H-benzo[d]imidazol-5-yl)isoquinolin-3-yl)picolinamide], the Dmax was more than 80% and the DC50 fell in the range of 10 to 99 nM.

`CC(C)c1cc(-c2cccc3cc(-c4ccc(C(=O)NCC#Cc5cc6c(cn5)cnn6C5CCC(=O)NC5=O)nc4)ncc23)cc2c1n(C)c(=O)n2C` (centres unmarked) [Example A6, N-(3-(1-(2,6-Dioxopiperidin-3-yl)-1H-pyrazolo[4,3-c]pyridin-6-yl)prop-2-yn-1-yl)-5-(8-(7-isopropyl-1,3-dimethyl-2-oxo-2,3-dihydro-1H-benzo[d]imidazol-5-yl)isoquinolin-3-yl)picolinamide] returned a Dmax of 60 to 79% and a DC50 of 1 to 9.9 nM.

For the compound `Cc1cc(-c2ccc(N(C)c3cc(C(C)C)c4c(c3)n(C)c(=O)n4C)cc2C(F)F)cnc1C(=O)NCC#Cc1cccc(NC2CCC(=O)NC2=O)c1` (centres unmarked) [Example A41, 5-(2-(difluoromethyl)-4-((7-isopropyl-1,3-dimethyl-2-oxo-2,3-dihydro-1H-benzo[d]imidazol-5-yl) (methyl)amino)phenyl)-N-(3-(3-((2,6-dioxopiperidin-3-yl)amino)phenyl)-prop-2-yn-1-yl)-3-methylpicolinamide], the Dmax is more than 80% and the DC50 lay in the range of 10 to 99 nM.

Compound `Cc1cc(-c2ncc3c(n2)OCCN3c2cnc3c(c2)n(C)c(=O)n3C)cnc1C(=O)NCC#Cc1ccc2occ(C3CCC(=O)NC3=O)c2c1` (centres unmarked) [Example A126, 5-(5-(1,3-dimethyl-2-oxo-2,3-dihydro-1H-imidazo[4,5-b]pyridin-6-yl)-6,7-dihydro-5H-pyrimido[4,5-b] [1,4]oxazin-2-yl)-N-(3-(3-(2,6-dioxo-piperidin-3-yl)benzofuran-5-yl)prop-2-yn-1-yl)-3-methylpicolinamide] returned a Dmax of 20 to 39% and a DC50 of 1 to 9.9 nM.

In turn, `COc1cc2cnn(C3CCC(=O)NC3=O)c2cc1C#CCNC(=O)c1ccc(-c2cc3cccc(-c4cc(C(C)C)c5c(c4)n(C)c(=O)n5C)c3cn2)cn1` (centres unmarked) [Example A27, N-(3-(1-(2,6-Dioxopiperidin-3-yl)-5-methoxy-1H-indazol-6-yl)prop-2-yn-1-yl)-5-(8-(7-isopropyl-1,3-dimethyl-2-oxo-2,3-dihydro-1H-benzo[d]imidazol-5-yl)isoquinolin-3-yl)picolinamide] came in with a Dmax of 60 to 79% and a half-maximal degradation concentration (DC50) of 1 to 9.9 nM.

`Cc1cc2c(N3CCCc4nc(-c5ccc(C(=O)NCC#Cc6ccc7occ(C8CCC(=O)NC8=O)c7c6)nc5)ncc43)nc(C(C)C)cc2n(C)c1=O` (centres unmarked) [Example B130, N-(3-(3-(2,6-dioxopiperidin-3-yl)benzofuran-5-yl)prop-2-yn-1-yl)-5-(5-(7-isopropyl-1,3-dimethyl-2-oxo-1,2-dihydro-1,6-naphthyridin-5-yl)-5,6,7,8-tetrahydropyrido[3,2-d]pyrimidin-2-yl)picolinamide] gave a Dmax of 60 to 79% and a half-maximal degradation concentration (DC50) of 1 to 9.9 nM.

The compound `CCc1cc(-c2cccc3cc(-c4ccc(C(=O)NCC#Cc5cc6c(cnn6C6CCC(=O)NC6=O)cc5C)nc4)ncc23)c2cc(C)c(=O)n(C)c2c1` (centres unmarked) [Example B3, N-(3-(1-(2,6-Dioxopiperidin-3-yl)-5-methyl-1H-indazol-6-yl)prop-2-yn-1-yl)-5-(8-(7-ethyl-1,3-dimethyl-2-oxo-1,2-dihydroquinolin-5-yl)isoquinolin-3-yl)picolinamide] gave a Dmax of 20 to 39% and a DC50 of 10 to 99 nM.

In turn, `CCc1cc(-c2cccc3cc(-c4ccc(C(=O)NCC#Cc5ccc6c(C)nn(C7CCC(=O)NC7=O)c6c5)nc4)ncc23)c2cc(C)c(=O)n(C)c2c1` (centres unmarked) [Example B1, N-(3-(1-(2,6-Dioxopiperidin-3-yl)-3-methyl-1H-indazol-6-yl)prop-2-yn-1-yl)-5-(8-(7-ethyl-1,3-dimethyl-2-oxo-1,2-dihydroquinolin-5-yl)isoquinolin-3-yl)picolinamide] displayed a Dmax of 60 to 79% and a 50% degradation concentration (DC50) of 10 to 99 nM.

`CCc1cc(N2CCOc3cc(-c4ccc(C(=O)NCC#Cc5ccc6occ(C7CCC(=O)NC7=O)c6c5)nc4)c(F)cc32)c2cc(C)c(=O)n(C)c2c1` (centres unmarked) [Example B149, N-(3-(3-(2,6-dioxopiperidin-3-yl)benzofuran-5-yl)prop-2-yn-1-yl)-5-(4-(7-ethyl-1,3-dimethyl-2-oxo-1,2-dihydroquinolin-5-yl)-6-fluoro-3,4-dihydro-2H-benzo[b][1,4]oxazin-7-yl)picolinamide] had a Dmax of more than 80% and a DC50 of 1 to 9.9 nM.

In turn, `Cc1cc(-c2cnc(N(C)c3cc(C4CCOCC4)c4c(c3)n(C)c(=O)n4C)cn2)cnc1C(=O)NCC#Cc1ccc2occ(C3CCC(=O)NC3=O)c2c1` (centres unmarked) [Example A128, 5-(5-((1,3-dimethyl-2-oxo-7-(tetrahydro-2H-pyran-4-yl)-2,3-dihydro-1H-benzo[d]imidazol-5-yl)(methyl)amino)pyrazin-2-yl)-N-(3-(3-(2,6-dioxopiperidin-3-yl)benzofuran-5-yl)prop-2-yn-1-yl)-3-methylpicolinamide] returned a Dmax of more than 80% and a DC50 of 1 to 9.9 nM.

With `CC(C)c1cc(-c2cccc3cc(-c4ccc(C(=O)NCC#Cc5cc6c(C7CCC(=O)NC7=O)coc6cn5)nc4)ncc23)cc2c1n(C)c(=O)n2C` (centres unmarked) [Example A228, N-(3-(3-(2,6-dioxo-piperidin-3-yl)furo[2,3-c]pyridin-5-yl)prop-2-yn-1-yl)-5-(8-(7-isopropyl-1,3-dimethyl-2-oxo-2,3-dihydro-1H-benzo [d]imidazol-5-yl)isoquinolin-3-yl)picolinamide], the Dmax fell in the range of 60 to 79% and the half-maximal degradation concentration (DC50) lay within 1 to 9.9 nM.

On to `Cc1cc2c(N3CCCc4nc(-c5ccc(C(=O)NCC#Cc6ccc7occ(C8CCC(=O)NC8=O)c7c6)nc5)ncc43)nc(N3CCC(F)CC3)cc2n(C)c1=O` (centres unmarked) [Example B27, N-(3-(3-(2,6-dioxopiperidin-3-yl)benzofuran-5-yl)prop-2-yn-1-yl)-5-(5-(7-(4-fluoro-piperidin-1-yl)-1,3-dimethyl-2-oxo-1,2-dihydro-1,6-naphthyridin-5-yl)-5,6,7,8-tetrahydropyrido[3,2-d]pyrimidin-2-yl) picolinamide], for which the Dmax was 60 to 79% and the DC50 was in the range of 1 to 9.9 nM.

Consider `Cc1cc(-c2ncc(N(C)c3cc(C(C)C)c4c(c3)n(C)c(=O)n4C)cn2)cnc1C(=O)NCC#Cc1ccc2occ(C3CCC(=O)NC3=O)c2c1` (centres unmarked) [Example A156, N-(3-(3-(2,6-dioxo-piperidin-3-yl)benzofuran-5-yl)prop-2-yn-1-yl)-5-(5-((7-isopropyl-1,3-dimethyl-2-oxo-2,3-dihydro-1H-benzo [d]imidazol-5-yl)(methyl)amino)pyrimidin-2-yl)-3-methylpicolinamide], for which the Dmax was more than 80% and the DC50 was in the range of 1 to 9.9 nM.

As to `Cn1c(=O)oc2ccc(-c3cccc4cc(-c5ccc(C(=O)NCC#Cc6ccc7occ(C8CCC(=O)NC8=O)c7c6)nc5)ncc34)cc21` (centres unmarked) [Example A101, N-(3-(3-(2,6-dioxo-piperidin-3-yl)benzofuran-5-yl)prop-2-yn-1-yl)-5-(8-(3-methyl-2-oxo-2,3-dihydrobenzo[d]oxazol-5-yl)isoquinolin-3-yl)picolinamide], the Dmax is less than 20% and the DC50 is more than 1000 nM.

For `Cc1cc2c(N3CCCc4nc(-c5ccc(C(=O)NCC#Cc6cc7c(C8CCC(=O)NC8=O)cccc7o6)nc5)ncc43)cc(Cl)cc2n(C)c1=O` (centres unmarked) [Example B126, 5-(5-(7-chloro-1,3-dimethyl-2-oxo-1,2-dihydroquinolin-5-yl)-5,6,7,8-tetrahydropyrido [3,2-d]pyrimidin-2-yl)-N-(3-(4-(2,6-dioxo-piperidin-3-yl)benzofuran-2-yl)prop-2-yn-1-yl)picolinamide], the maximal degradation (Dmax) is more than 80% and the DC50 lay within 1 to 9.9 nM.

Turning to `Cc1cc(-c2cn(C)c(=O)c3cc(-c4ccc(C(=O)NCC#Cc5ccc6occ(C7CCC(=O)NC7=O)c6c5)nc4)ncc23)cc2c1n(C)c(=O)n2C` (centres unmarked) [Example A107, N-(3-(3-(2,6-dioxo-piperidin-3-yl)benzofuran-5-yl)prop-2-yn-1-yl)-5-(6-methyl-5-oxo-8-(1,3,7-trimethyl-2-oxo-2,3-dihydro-1H-benzo[d]imidazol-5-yl)-5,6-dihydro-2,6-naphthyridin-3-yl)picolinamide], the Dmax was more than 80% and the DC50 is less than 1 nM.

In turn, `Cc1cc(-c2ccc(Nc3cc4c(c(C(C)C)n3)n(C)c(=O)n4C)cn2)cnc1C(=O)NCC#Cc1ccc2occ(C3CCC(=O)NC3=O)c2c1` (centres unmarked) [Example A56, N-(3-(3-(2,6-dioxopiperidin-3-yl)benzofuran-5-yl)prop-2-yn-1-yl)-5-((4-isopropyl-1,3-dimethyl-2-oxo-2,3-dihydro-1H-imidazo[4,5-c]pyridin-6-yl)amino)-5′-methyl-[2,3′-bipyridine]-6′-carboxamide] registered a maximal degradation (Dmax) of less than 20% and a DC50 of more than 1000 nM.

As for `COc1cc(-c2cnc(C(=O)NCC#Cc3cc4c(C5CCC(=O)NC5=O)cccc4o3)c(C)c2)ncc1N(C)c1cc(C2CCOCC2)c2c(c1)n(C)c(=O)n2C` (centres unmarked) [Example A166, 5-((1,3-dimethyl-2-oxo-7-(tetrahydro-2H-pyran-4-yl)-2,3-dihydro-1H-benzo[d]imidazol-5-yl)(methyl)amino)-N-(3-(4-(2,6-dioxopiperidin-3-yl)benzofuran-2-yl)prop-2-yn-1-yl)-4-methoxy-5′-methyl-[2,3′-bipyridine]-6′-carboxamide], the Dmax lay in the range of 20 to 39% and the DC50 was in the range of 1 to 9.9 nM.

Consider `Cc1cc2c(N3CCN(C)c4nc(-c5ccc(C(=O)NCC#Cc6ccc7occ(C8CCC(=O)NC8=O)c7c6)nc5)ncc43)cccc2n(C)c1=O` (centres unmarked) [Example B33, 5-(5-(1,3-dimethyl-2-oxo-1,2-dihydroquinolin-5-yl)-8-methyl-5,6,7,8-tetrahydropteridin-2-yl)-N-(3-(3-(2,6-dioxopiperidin-3-yl)benzofuran-5-yl)prop-2-yn-1-yl)picolinamide], for which the Dmax is more than 80% and the DC50 lay in the range of 1 to 9.9 nM.
